# Measured values reported in patent US6437128B1, “Cribrostatins 3-5” (Arizona Board of Regents, priority 2001, dated 2002).
# Like-named read-outs stand apart in the source and are kept apart here.
# What was measured:
# Format in all cases: cell-based
# [1] = tested on: KM20L2 (Colon); assay: ASU-CRI minipanel of human cancer cell lines
# Text: (§1) Individual cell line response values are provided in the Experimental.
# [2] = tested on: SF-295 (CNS); assay: ASU-CRI minipanel of human cancer cell lines; conditions: CNS SF-295
# Text: as §1
# [3] = tested on: BXPC-3 (Pancreas-a); assay: ASU-CRI minipanel of human cancer cell lines; conditions: Pancreas-a BXPC-3
# Text: as §1
# [4] = tested on: OVCAR-3 (Ovarian); assay: ASU-CRI minipanel of human cancer cell lines; conditions: Ovarian OVCAR-3
# Text: as §1
# [5] = tested on: NCI-H460 (Lung-NSC); assay: ASU-CRI minipanel of human cancer cell lines
# Text: as §1
# [6] = tested on: DU-145 (Prostate); assay: ASU-CRI minipanel of human cancer cell lines; conditions: Prostate DU-145
# Text: as §1
# [7] = tested on: Streptococcus pneumoniae (ATCC 6303); assay: Antimicrobial disk diffusion
# [8] = tested on: Micrococcus luteus (Presque Isle 456); assay: Antimicrobial disk diffusion
# [9] = tested on: P388 lymphocytic leukemia; assay: in vitro murine P388 lymphocytic leukemia (PS) cell growth inhibition
# Text: The fractions obtained from the 1988-89 recollection of Cribrochalina so. (See: Pettit, G. R.; Collins, J. C.; Herald, D. L.; Doubek, D. L.; Boyd, M. R.; Schmidt, J. M.; Hooper, J. N. A.; Tackett, L. P. Can. J. Cheim. 1992, 70, 1170-1175) beginning with the 195 g dichloromethane partition fraction were re-examined guided by bioassay results using the murine P388 lymphocytic leukemia.
# as §1
# [10] = tested on: Bacillus subtilis (Presque Isle 620); assay: Antimicrobial disk diffusion
# [11] = tested on: Candida albicans (ATCC 90028); assay: Antimicrobial disk diffusion
# [12] = tested on: Enterobacter cloacae (ATCC 13047); assay: Antimicrobial disk diffusion
# [13] = tested on: Enterococcus faecalis (ATCC 29212); assay: Antimicrobial disk diffusion
# [14] = tested on: Staphylococcus aureus (ATCC 29213); assay: Antimicrobial disk diffusion
# [15] = tested on: Neisseria gonorrhoeae (ATCC 49226); assay: Antimicrobial disk diffusion
# [16] = tested on: Penicillin-resistant N. gonorrhoeae (clinical isolate); assay: Antimicrobial disk diffusion
# [17] = tested on: Stenotrophomonas maltophilia (ATCC 13637); assay: Antimicrobial disk diffusion
# [18] = tested on: Cryptococcus neoformans (ATCC 90112); assay: Antimicrobial disk diffusion
# [19] = tested on: Escherichia coli (ATCC 25922); assay: Antimicrobial disk diffusion
structure (smiles),measurement,setting,value
"C/C=C(/C)C(=O)OC[C@H]1C2=C(C=C3[C@H]4c5c(O)c(OC)c(C)c(O)c5C(=O)[C@@H](C(=O)N31)N4C)C(=O)C(C)=C(OC)C2=O [Cribrostatin 5, cribrostatin 5]",GI50,[1],0.14 µg/mL
same,GI50,[2],0.36 µg/mL
same,GI50,[3],0.29 µg/mL
same,GI50,[4],0.18 µg/mL
same,GI50,[5],0.22 µg/mL
same,GI50,[6],0.30 µg/mL
same,Minimum inhibitory concentration,[7]; listed as 4b,* (No inhibition at 100 μg/disk)
same,Minimum inhibitory concentration,[8]; listed as 4b,50-100 μg/disk
same,GI50,[9]; Mouse Leukemia P388,0.045 µg/mL
same,PS ED50 (P388 ED50),"[9]; in vitro P388 lymphocytic leukemia, listed as cribrostatin 5",0.045 µg/mL
same,Minimum inhibitory concentration,[10],* (No inhibition at 100 μg/disk)
"CC1=C(N)C(=O)c2c(ccnc2C)C1=O [Cribrostatin 1, cribrostatin 1, reference compound]",Minimum inhibitory concentration,[11],* (No inhibition at 100 μg/disk)
same,Minimum inhibitory concentration,[12],* (No inhibition at 100 μg/disk)
same,Minimum inhibitory concentration,[7],* (No inhibition at 100 μg/disk)
same,Minimum inhibitory concentration,[13],* (No inhibition at 100 μg/disk)
same,Minimum inhibitory concentration,[8],* (No inhibition at 100 μg/disk)
same,Minimum inhibitory concentration,[14],* (No inhibition at 100 μg/disk)
same,Minimum inhibitory concentration,[15],0.39-0.78 μg/disk
same,Minimum inhibitory concentration,[16],0.39-0.78 μg/disk
same,Minimum inhibitory concentration,[17],* (No inhibition at 100 μg/disk)
same,Minimum inhibitory concentration,[10],* (No inhibition at 100 μg/disk)
same,Minimum inhibitory concentration,[18],* (No inhibition at 100 μg/disk)
same,Minimum inhibitory concentration,[19],* (No inhibition at 100 μg/disk)
